Assay results taken from patent US10988737B2, “Clinical gene signature-based human cell culture model and uses thereof” (priority 2015, dated 2021).
Entries after “also recorded” stand apart in the source; their conditions may differ.

Legend:
[1] = test system: PLS/HCC high risk genes in HCV-infected or ethanol exposed Huh7.5.1^dif cells or HBV-infected HepG2-NTCP cells; assay: Epigenetic inhibitors: 32-gene PLS/HCC risk signature in infected or ethanol-treated liver cells; format: cell-based, human; conditions: iBET 0.05 μM, WDR5-0103 100 μM
Experimental: HCV infection was assessed at day 10 by qRT-PCR of intracellular RNA as described (Xiao et al., PLoS pathogens. 2014, 10(5): e1004128).
(§1) HBV infection was assessed at day 10 post-infection by qRT-PCR quantification of HBV pregenomic RNA (pgRNA) as described in (Verrier et al., Hepatology, 2015, 63: 35-48).
Fresh medium containing ethanol and antibodies was replenished daily (Ye et al., Drug Alcohol Depend., 2010, 112: 107-116).
(§2) Transcriptional analyses. Ten days after HCV Jc1 and HBV infection or ethanol exposure, cultures were lysed using TRI-reagent (MRC) and RNA purified using the Directzol mini kit (Zymo Research). Gene expression profiling was performed using 250-500 ng total RNA by using either NCOUNTER Digital Analyzer system (NanoString) or high throughput qRT-PCR Biomark HD (Baker, Nature Meth., 2012, 9: 541-544) […]. Induction or suppression of HCC risk signature was determined by Gene Set Enrichment Analysis (GSEA), implemented in GenePattern genomic analysis toolkits.

HCV Jc1 = assay: HCV viral load in HCV Jc1-infected Huh7.5.1dif cells (qRT-PCR of intracellular HCV RNA); format: cell-based; conditions: for effect on HCV viral load: HCV-infected Huh7.5.1dif cells, at the concentrations that suppress the signature
Experimental: HCV Infection of Huh7.5.1^dif cells. Cell culture-derived HCVcc Jc1 (genotype 2a/2a) (Pietschmann et al., PNAS USA, 2006, 103: 7408-7413) were generated in Huh7.5.1 cells as previously described (Wakita et al., Nat. Med., 2005, 11: 791-796). HCV Jc1E2^FLAG was purified using anti-FLAG M2 affinity gel (Sigma-Aldrich, St.Louis, Mo., USA) as described (Merz et al., J. Biol. Chem., 2011, 286: 3018-3032). HCVcc infectivity was determined by calculating the 50% tissue culture infectious doses (TCID50) as previously described (Lindenbach et al., Science, 2005, 309: 623-626). Huh7.5.1^dif cells were infected with HCV Jc1 or HCV Jc1E2^FLAG. Cell culture supernatants from mock-electroporated cells or 100 μg/mL of FLAG peptide were used for control experiments. HCV infection was assessed by qRT-PCR of intracellular HCV RNA (Xiao et al., PLoS Pathog., 2014, 10: e1004128) as well as immunostaining using HCV E2-specific AP33 antibody as previously described (Krieger et al., Hepatology, 2010, 51: 1144-1157).

[2] = test system: HCC risk signature in HCV Jc1-infected Huh7.5.1^dif cells; assay: HCC risk signature in HCV Jc1-infected Huh7.5.1dif cells after antiviral or EGFR/MAPK pathway inhibitor treatment; format: cell-based, human; conditions: three days treatment from day 7 post-infection
Experimental: HCV Infection of Huh7.5.1^dif cells. […] Huh7.5.1^dif cells were infected with HCV Jc1 or HCV Jc1E2^FLAG. […] HCV infection was assessed by qRT-PCR of intracellular HCV RNA (Xiao et al., PLoS Pathog., 2014, 10: e1004128) as well as immunostaining using HCV E2-specific AP33 antibody as previously described (Krieger et al., Hepatology, 2010, 51: 1144-1157).
Transcriptional Analyses. Liver cells were lysed in TRI-reagent (Molecular Research Center; Cincinnati, Ohio, USA), and RNA was purified using Direct-zol RNA MiniPrep (Zymo Research, Irvine, Calif., USA) according to manufacturer's instructions. RNA quantity and RNA quality were assessed using NanoDrop (Thermo Scientific, Waltham, Mass., USA) and Bioanalyzer 2100 (IIlumina, San Diego, Calif., USA) with a quality cut-off of RNA Integrity Number >8. […] Gene expression profiling was performed using 250-500 ng total RNA by using either NCOUNTER Digital Analyzer system (NanoString) or the HumanHT-12 beadarray (Illumina, San Diego, Calif., USA). HCC high risk gene expression was analyzed by qRT-PCR using specific TaqMan Gene Expression Assays (Life Technologies, Carlsbad, Calif., USA) or the ANXA3 and GPX2 primer sets previously described (Pan et al., Stem Cells, 2015, 33: 354-366 and Brault et al., Gut, 2014, 65: 44-54, respectively). The expression of GAPDH mRNA was analyzed as a reference gene using a specific TaqMan Gene Expression Assay (Life Technologies, Carlsbad, Calif., USA) or the RT2 qPCR Primer Assay (Qiagen, Hilden, Germany). Relative gene expression level was calculated by the ΔΔCt method as previously described (Schmittgen et al., Nat. Protoc., 2008, 3: 1101-1108).
Bioinformatics. Induction or suppression of HCC risk signature in HumanHT-12 beadarray (Illumina, San Diego, Calif., USA) data was determined as previously reported by using Nearest Template Prediction algorithm and Gene Set Enrichment Analysis (GSEA), implemented in GenePattern genomic analysis toolkits (Subramanian et al., PNAS USA, 2005, 102: 15545-15550; Hoshida, PLoS One, 2010, 5: e15543; Reich et al., Nat. Genet., 2006, 38: 500-501). Molecular pathway deregulations were determined in Molecular Signature Database (MSigDB, ver.4.0) (Liberzon et al., Bioinformatics, 2011, 27: 1739-1740) using GSEA (Subramanian et al., PNAS USA, 2005, 102: 15545-15550).

ERK1/2 = assay: Proteome Profiler Human Phospho-kinase Array in HCV-infected liver cells; format: cell-based; conditions: low inhibitor concentrations
Experimental: Proteomic Analyses. For proteomic analyses, Huh7.5.1^dif cells that had undergone DMSO-mediated differentiation, were infected with HCV Jc1E2^FLAG (TCID50=10^7/mL) as described above. On day 7, receptor tyrosine kinase (RTK) phosphorylation was assessed in cell lysates using the Human Phospho-RTK Array Kit as previously described (Lupberger et al., Nat. Med., 2011, 17: 589-595; and Zona et al., Cell Host Microbe, 2013, 13: 302-313). The effect of MAPK inhibitors on signaling was confirmed using the Proteome Profiler Human Phospho-kinase Array according to manufacturer's instructions (R&D Systems). Amounts of phospho-proteins were assessed using a horseradish peroxidase-conjugated pan-phospho-tyrosine-specific antibody (R&D Systems, Minneapolis, Minn., USA) followed by chemiluminescence detection (GE Healthcare, Cleveland, Ohio, USA) according to manufacturer's instructions. The relative dot-blot density of the phosphorylated proteins in HCV Jc1E2^FLAG infected samples compared to non-infected controls was quantified using Image J software (NIH) by elliptical selection of individual dots and measuring standard deviation and integrated density.

[3] = test system: HCC high-risk genes in human fibrotic liver tissue; assay: Organotypic ex vivo culture of surgically resected human fibrotic liver tissue slices, PLS/HCC risk signature by GSEA; format: cell-based; conditions: erlotinib 5 μM, pioglitazone 10 μM
Experimental: Liver Slices. Fresh liver tissue sections (300 μm-thick) were prepared from surgically resected fibrotic livers from HCC patients using Krumdieck Tissue Slicer MD6000 (Alabama Research and Development, Munford, Ala., USA).
Transcriptional Analyses. Liver cells were lysed in TRI-reagent (Molecular Research Center; Cincinnati, Ohio, USA), and RNA was purified using Direct-zol RNA MiniPrep (Zymo Research, Irvine, Calif., USA) according to manufacturer's instructions. RNA quantity and RNA quality were assessed using NanoDrop (Thermo Scientific, Waltham, Mass., USA) and Bioanalyzer 2100 ([…]) with a quality cut-off of RNA Integrity Number >8. […] HCC high risk gene expression was analyzed by qRT-PCR using specific TaqMan Gene Expression Assays (Life Technologies, Carlsbad, Calif., USA) or the ANXA3 and GPX2 primer sets previously described (Pan et al., Stem Cells, 2015, 33: 354-366 and Brault et al., Gut, 2014, 65: 44-54, respectively). The expression of GAPDH mRNA was analyzed as a reference gene using a specific TaqMan Gene Expression Assay (Life Technologies, Carlsbad, Calif., USA) or the RT2 qPCR Primer Assay (Qiagen, Hilden, Germany). Relative gene expression level was calculated by the ΔΔCt method as previously described (Schmittgen et al., Nat. Protoc., 2008, 3: 1101-1108). […]

[4] = test system: PLS/HCC high risk genes in HBV-infected HepG2-NTCP cells; assay: Epigenetic inhibitors: 32-gene PLS/HCC risk signature in HBV-infected HepG2-NTCP cells; format: cell-based; conditions: only in HBV infected cells; C646 10 μM
Experimental: as §1, §2

| Compound | PLS/HCC high risk gene expression [1] | HCC high-risk gene expression [2] | effect on HCV viral load (HCV Jc1) | other results |
| --- | --- | --- | --- | --- |
| iBET | suppressed | – | – | – |
| Interferon-alpha 2a | – | partial suppression | – | decrease of viral load (HCV Jc1; HCV Jc1-infected Huh7.5.1dif cells, three days treatment from day 7, 10 IU/mL interferon-alpha 2a or 1 nM daclatasvir + 1 μM sofosbuvir): about 100 fold; HCC low-risk gene expression [2]: restoration |
| Nc1[nH]nc2nnc(-c3c(-c4ccccc4)nn4ccccc34)cc12 [Fr180204] | – | suppressed | absent effects | ERK1/2 phosphorylation (virus-induced MAPK signaling) (ERK1/2): reduced |
| C#Cc1cccc(Nc2ncnc3cc(OCCOC)c(OCCOC)cc23)c1 [Erlotinib] | – | suppressed | did not modify | PLS / HCC high-risk genes in ex vivo liver tissue [3]: effectively suppress; also recorded: reverted |
| CC1=NN(c2ccc(C(=O)O)cc2)C(=O)/C1=C\c1ccc(-c2cc(C)c(C)cc2[N+](=O)[O-])o1 [C646] | – | – | – | PLS/HCC high risk genes [4]: suppressed |
| COC(=O)c1ccc(N2CCN(C)CC2)c(NC(=O)c2cccc(OC)c2)c1 [WDR5-0103] | suppressed | – | – | – |
